Consider 14 molecules from patent publication US12378256B2, “Heterocyclic compound” (Takeda Pharmaceutical Company Limited, priority 2017, dated 2025).

This experiment concerns the target T1, human M1 receptor (hCHRM1) (Homo sapiens, UniProt P11229).
T1 construct: expressed in transfected cells; host or cells: CHO-K1
T1 sequence (P11229 1-460): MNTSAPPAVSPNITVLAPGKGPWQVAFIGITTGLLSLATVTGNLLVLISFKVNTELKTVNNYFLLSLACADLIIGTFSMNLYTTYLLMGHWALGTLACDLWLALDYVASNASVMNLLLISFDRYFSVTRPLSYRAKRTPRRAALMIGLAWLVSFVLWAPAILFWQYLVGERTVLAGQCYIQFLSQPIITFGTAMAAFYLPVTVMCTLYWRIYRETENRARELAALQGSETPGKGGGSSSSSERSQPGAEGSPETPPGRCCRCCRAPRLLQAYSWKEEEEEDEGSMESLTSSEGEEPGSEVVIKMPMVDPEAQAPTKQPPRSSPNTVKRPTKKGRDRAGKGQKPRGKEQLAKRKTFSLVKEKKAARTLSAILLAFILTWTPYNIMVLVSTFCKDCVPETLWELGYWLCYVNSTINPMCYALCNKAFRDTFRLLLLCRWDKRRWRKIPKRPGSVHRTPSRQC
Description: Measurement of M1 receptor positive allosteric modulator (M1PAM) activity, calcium fluorescence with acetylcholine at EC20. Particulars: for activity (%) at 10 μM: 10 μM test compound, 100% = 1 μM acetylcholine, 0% = DMSO; for EC50: CHO-K1 cells expressing hCHRM1, acetylcholine at EC20 (final 0.8-1.0 nM), read-out: IP value (inflection point in the concentration-dependent curve). Type of experiment: cell-based. Here is the method: Measurement of M1 Receptor Positive Allosteric Modulator (M1PAM) Activity
The activity of a test compound in the presence of acetylcholine at EC20 concentration (final concentration 0.8-1.0 nM), which affords an action corresponding to about 20% of the maximum activity, was measured as PAM activity. The method is as follows. CHO-K1 cells stably expressing a human M1 receptor (hCHRM1) were plated on a 384-well black clear bottom plate (BD Falcon) at 5,000 cells/well, and cultured in an incubator at 37° C., 5% CO2 for 1 day. The medium in the cell plate was removed, and assay buffer A containing calcium indicator (Recording medium (DOJINDO LABORATORIES), 0.1% BSA (Wako Pure Chemical Industries, Ltd.), 2.5 μg/mL Fluo-4 AM (DOJINDO LABORATORIES), 0.08% Pluronic F127 (DOJINDO LABORATORIES), 1.25 mM probenecid (DOJINDO LABORATORIES)) was added at 30 μL/well. The cells were left standing in the incubator at 37° C., 5% CO2 for 30 min, and further left standing at room temperature for 30 min. A test compound prepared by diluting with assay buffer B (HBSS (Invitrogen), 20 mM HEPES (Invitrogen), 0.1% BSA) containing 3.2-4.0 nM acetylcholine was added at 10 μL/well, and the fluorescence was measured by FDSS/μCELL (Hamamatsu Photonics K.K.) for 1 min every for 1 second. With the definition that the amount of change in the fluorescence on addition of acetylcholine (final concentration 1 μM) is 100% and that on addition of DMSO instead of a test compound is 0%, the activity (%) of the test compound was calculated, and the inflection point in the concentration-dependent curve of the test compound was calculated as IP values.

For the molecule `Cn1cc(-c2ccc(Cc3cc(C(=O)N[C@H]4CCCC[C@@H]4O)nc4c3OCC4)cn2)cn1` [Example 61, N-((1S,2S)-2-hydroxycyclohexyl)-7-((6-(1-methyl-1H-pyrazol-4-yl)pyridin-3-yl)methyl)-2,3-dihydrofuro[3,2-b]pyridine-5-carboxamide], the “activity (%) at 10 μM” value was 104% and the EC50 was 1.8 nM.
`Cc1nccc(-c2ccc(Cc3cc(C(=O)N[C@H]4CCOC[C@@H]4O)nc4ccoc34)cc2)n1` [Example 49, 1,5-anhydro-2,3-dideoxy-3-(((7-(4-(2-methylpyrimidin-4-yl)benzyl)furo[3,2-b]pyridin-5-yl)carbonyl)amino)-L-threo-pentitol]: the “activity (%) at 10 μM” value came out at 104% and the EC50 is 2.9 nM.
With `Cn1cc(-c2ccc(C(F)c3cc(C(=O)N[C@H]4CCOC[C@@H]4O)nc4ccoc34)cc2)nn1` (single isomer, unassigned) [Example 56, 1,5-anhydro-2,3-dideoxy-3-(((7-(fluoro(4-(1-methyl-1H-1,2,3-triazol-4-yl)phenyl)methyl)furo[3,2-b]pyridin-5-yl)carbonyl)amino)-L-threo-pentitol], the “activity (%) at 10 μM” value stood at 106% and the EC50 came out at 42 nM.
In the case of `O=C(N[C@H]1CCOC[C@@H]1O)c1cc(Cc2ccc(C(=O)NC[C@H]3CCCO3)c(F)c2)c2c(n1)CCO2` [Example 88, 1,5-anhydro-2,3-dideoxy-3-(((7-(3-fluoro-4-(((2R)-tetrahydrofuran-2-ylmethyl)carbamoyl)benzyl)-2,3-dihydrofuro[3,2-b]pyridin-5-yl)carbonyl)amino)-L-threo-pentitol], the “activity (%) at 10 μM” value was found to be 111% and the EC50 was found to be 7.6 nM.
As for `Cn1cc(-c2ccc(Cc3cc(C(=O)N[C@H]4COCC[C@@H]4O)nc4ccoc34)cc2)nn1` [Example 21, 1,5-anhydro-2,4-dideoxy-2-(((7-(4-(1-methyl-1H-1,2,3-triazol-4-yl)benzyl)furo[3,2-b]pyridin-5-yl)carbonyl)amino)-L-threo-pentitol], the “activity (%) at 10 μM” value was 100% and the EC50 was found to be 1.6 nM.
`CC(C)SCCNC(=O)c1ccc(Cc2cc(C(=O)N[C@H]3CCOC[C@@H]3O)nc3c2OCC3)cc1F` [Example 97, 1,5-anhydro-2,3-dideoxy-3-(((7-(3-fluoro-4-((2-(isopropylsulfanyl)ethyl)-carbamoyl)benzyl)-2,3-dihydrofuro[3,2-b]pyridin-5-yl)carbonyl)amino)-L-threo-pentitol]: the “activity (%) at 10 μM” value was 107% and the EC50 was found to be 5.1 nM.
With `CN1Cc2cc(Cc3cc(C(=O)N[C@H]4CCOC[C@@H]4O)nc4c3OCC4)ccc2C1=O` [Example 113, 1,5-anhydro-2,3-dideoxy-3-(((7-((2-methyl-1-oxo-2,3-dihydro-1H-isoindol-5-yl)methyl)-2,3-dihydrofuro[3,2-b]pyridin-5-yl)carbonyl)amino)-L-threo-pentitol], the “activity (%) at 10 μM” value came to 109% and the EC50 was 21 nM.
Turning to `Cn1cc(-c2ccc(Cc3cc(C(=O)N[C@H]4CCOC[C@@H]4O)nc4c3OCC4)cn2)cn1` [Example 60, 1,5-anhydro-2,3-dideoxy-3-(((7-((6-(1-methyl-1H-pyrazol-4-yl)pyridin-3-yl)methyl)-2,3-dihydrofuro[3,2-b]pyridin-5-yl)carbonyl)amino)-L-threo-pentitol], the “activity (%) at 10 μM” value stood at 104% and the EC50 was found to be 1.6 nM.
Turning to `COCCNC(=O)c1ccc(C(C)c2cc(C(=O)N[C@H]3CCOC[C@@H]3O)nc3ccoc23)cc1F` (stereo partly drawn) [Example 111, 1,5-anhydro-2,3-dideoxy-3-(((7-(1-(3-fluoro-4-((2-methoxyethyl)carbamoyl)phenyl)ethyl)furo[3,2-b]pyridin-5-yl)carbonyl)amino)-L-threo-pentitol], the “activity (%) at 10 μM” value is 107% and the EC50 stood at 8.8 nM.
On to `CN(C)C(=O)CNC(=O)c1ccc(Cc2cc(C(=O)N[C@H]3CCOC[C@@H]3O)nc3c2OCC3)cc1F` [Example 100, 1,5-anhydro-2,3-dideoxy-3-(((7-(4-((2-(dimethylamino)-2-oxoethyl)carbamoyl)-3-fluorobenzyl)-2,3-dihydrofuro[3,2-b]pyridin-5-yl)carbonyl)amino)-L-threo-pentitol], for which the “activity (%) at 10 μM” value came to 103% and the EC50 is 3.8 nM.
With `O=C(N[C@@H]1CCC(F)(F)C[C@H]1O)c1cc(Cc2ccc(-n3cccn3)cc2)c2c(n1)CCO2` (single isomer, unassigned) [Example 46, N-(trans-4,4-difluoro-2-hydroxycyclohexyl)-7-(4-(1H-pyrazol-1-yl)benzyl)-2,3-dihydrofuro[3,2-b]pyridine-5-carboxamide], the “activity (%) at 10 μM” value worked out at 107% and the EC50 turned out to be 4.3 nM.
Regarding `CCNC(=O)c1ccc(Cc2cc(C(=O)N[C@H]3CCOC[C@@H]3O)nc3c2OCC3)cc1F` [Example 81, 1,5-anhydro-2,3-dideoxy-3-(((7-(4-(ethylcarbamoyl)-3-fluorobenzyl)-2,3-dihydrofuro[3,2-b]pyridin-5-yl)carbonyl)amino)-L-threo-pentitol], the “activity (%) at 10 μM” value amounted to 108% and the EC50 turned out to be 5.3 nM.
In the case of `Cc1csc(-c2ccc(Cc3cc(C(=O)N[C@H]4CCCC[C@@H]4O)nc4c3OCC4)cc2)n1` [Example 16, N-((1S,2S)-2-hydroxycyclohexyl)-7-(4-(4-methyl-1,3-thiazol-2-yl)benzyl)-2,3-dihydrofuro[3,2-b]pyridine-5-carboxamide], the “activity (%) at 10 μM” value is 100% and the EC50 is 10 nM.
Taken in the same sequence, the figures for `O=C(N[C@H]1CCOC[C@@H]1O)c1cc(Cc2ccc(C(=O)NCc3ccc(O)cc3)c(F)c2)c2c(n1)CCO2` [Example 90, 1,5-anhydro-2,3-dideoxy-3-(((7-(3-fluoro-4-((4-hydroxybenzyl)carbamoyl)benzyl)-2,3-dihydrofuro[3,2-b]pyridin-5-yl)carbonyl)amino)-L-threo-pentitol] were 113% and 1.4 nM.
